US9096591B2, “Tetracyclic compounds” (Medivation Technologies, Inc., priority 2007, dated 2015)
Read-outs that look alike come from different tables or passages of the source.

Columns and labels:
[1] = target: T1, human recombinant serotonin (5-Hydroxytryptamine) 5-HT2A receptor (Homo sapiens, UniProt P28223); assay: Serotonin 5-HT2A radioligand binding ([3H]Ketanserin); details: percent inhibition of specific binding
T1 construct: expressed in transfected cells; host or cells: CHO-K1 cells
Description: Compounds of the invention were incubated with 0.5 nM [^3H]Ketanserin for 60 minutes at 25° C. Non-specific binding was estimated in the presence of 1 μM Mianserin. Receptor proteins were filtered and washed, the filters were then counted to determine [^3H]Ketanserin specifically bound. […] Biochemical assay results are presented as the percent inhibition of specific binding in Table 6.

[2] = target: T2, human recombinant histamine H2 receptor (Homo sapiens, UniProt P25021); assay: Histamine H2 radioligand binding ([125I]Aminopotentidine)
T2 construct: expressed in transfected cells; host or cells: CHO-K1 cells
In short: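 This radioligand binding assay measured displacement of [125I]Aminopotentidine from recombinant human histamine H2 receptors. Compounds were dissolved in 1% DMSO vehicle. Specific binding was calculated by subtracting non-specific binding, defined using 3 μM Tiotidine, and activity was reported as percentage inhibition of that specific binding.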

[3] = target: T3, human recombinant adrenergic α1D receptor (Homo sapiens, UniProt P25100); assay: Adrenergic α1D radioligand binding ([3H]Prozosin); parameters: Inhibition of ligand binding, Adren. alpha1D: concentration or dose not given beside the values; details: percent inhibition of specific binding
T3 construct: expressed in transfected cells; host or cells: HEK-293 cells
T3 sequence (P25100 1-572): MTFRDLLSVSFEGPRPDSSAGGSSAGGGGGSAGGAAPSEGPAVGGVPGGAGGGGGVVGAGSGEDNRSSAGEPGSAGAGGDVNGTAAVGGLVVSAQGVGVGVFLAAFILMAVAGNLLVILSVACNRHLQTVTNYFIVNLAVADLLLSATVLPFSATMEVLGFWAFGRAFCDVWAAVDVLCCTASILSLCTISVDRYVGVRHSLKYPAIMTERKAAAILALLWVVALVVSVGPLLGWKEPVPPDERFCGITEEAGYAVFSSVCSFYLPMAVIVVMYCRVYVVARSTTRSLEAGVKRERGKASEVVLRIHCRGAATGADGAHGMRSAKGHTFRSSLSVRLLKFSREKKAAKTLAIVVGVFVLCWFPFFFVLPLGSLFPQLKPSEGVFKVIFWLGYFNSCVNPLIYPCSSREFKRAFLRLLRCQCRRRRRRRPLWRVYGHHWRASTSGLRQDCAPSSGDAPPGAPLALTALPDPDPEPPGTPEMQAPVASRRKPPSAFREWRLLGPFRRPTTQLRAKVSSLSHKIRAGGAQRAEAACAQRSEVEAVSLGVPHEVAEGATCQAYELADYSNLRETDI
Description: Compounds of invention were incubated with 0.6 nM [^3H]Prozosin for 60 minutes at 25° C. Non-specific binding was estimated in the presence of 10 μM phentolamine. Receptor proteins were filtered and washed, the filters were then counted to determine [^3H]Prozosin specifically bound. […] Biochemical assay results are presented as the percent inhibition of specific binding in Table 6.

[4] = target: T4, human recombinant adrenergic α2A receptor (Homo sapiens, UniProt P08913); assay: Adrenergic α2A radioligand binding ([3H]MK-912); parameters: Inhibition of ligand binding, Adren. alpha2A: concentration or dose not given beside the values; details: percent inhibition of specific binding
T4 construct: expressed in transfected cells; host or cells: insect Sf9 cells
T4 sequence (P08913 1-465): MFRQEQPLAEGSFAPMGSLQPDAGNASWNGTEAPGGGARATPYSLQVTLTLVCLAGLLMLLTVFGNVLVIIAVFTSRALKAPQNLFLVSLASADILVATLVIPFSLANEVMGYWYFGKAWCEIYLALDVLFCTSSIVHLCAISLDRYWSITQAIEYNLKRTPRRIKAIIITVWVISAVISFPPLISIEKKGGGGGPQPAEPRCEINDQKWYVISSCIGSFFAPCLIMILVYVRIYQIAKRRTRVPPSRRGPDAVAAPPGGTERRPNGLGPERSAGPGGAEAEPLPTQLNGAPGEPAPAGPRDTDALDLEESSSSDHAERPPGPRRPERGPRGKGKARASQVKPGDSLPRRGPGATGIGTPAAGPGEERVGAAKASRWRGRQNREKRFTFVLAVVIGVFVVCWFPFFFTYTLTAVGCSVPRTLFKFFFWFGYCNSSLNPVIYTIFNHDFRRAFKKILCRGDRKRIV
In short: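 Membranes from Sf9 cells expressing the receptor were incubated with 1 nM [3H]MK-912 for 60 minutes at 25° C in 50 mM Tris-HCl pH 7.4, 12.5 mM MgCl2, 2 mM EDTA. 10 μM WB-4101 defined non-specific binding. Values are percent inhibition of specific bound radioactivity after filtration.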

[5] = target: T5, Serotonin (5-Hydroxytryptamine) 5-HT7 (Homo sapiens, UniProt P34969); assay: Serotonin 5-HT7 radioligand binding ([3H]LSD); parameters: Inhibition of ligand binding, Ser. 5-HT7: concentration or dose not given beside the values; details: percent inhibition of specific binding
T5 construct: expressed in transfected cells; host or cells: CHO cells
Description: Lysergic acid diethylamide (LSD) for 2 hours at 25° C. […] Receptor proteins were filtered and washed, the filters were then counted to determine [^3H]LSD specifically bound. […] Biochemical assay results are presented as the percent inhibition of specific binding in Table 6.

[6] = target: T6, human recombinant dopamine D2L receptor (Homo sapiens, UniProt P14416); assay: Dopamine D2L radioligand binding ([3H]Spiperone); details: percent inhibition of specific binding
T6 construct: expressed in transfected cells; host or cells: CHO cells
Description: Non-specific binding was estimated in the presence of 10 μM Haloperidol. Receptor proteins were filtered and washed, the filters were then counted to determine [^3H]Spiperone specifically bound. […] Biochemical assay results are presented as the percent inhibition of specific binding in Table 6.

[7] = percent inhibition of specific binding, screened at 1 μM, read-out: Inhibition of ligand binding, Hist. H2
[8] = read-out: Inhibition of ligand binding, Hist. H2

T5 sequence (P34969 whole entry): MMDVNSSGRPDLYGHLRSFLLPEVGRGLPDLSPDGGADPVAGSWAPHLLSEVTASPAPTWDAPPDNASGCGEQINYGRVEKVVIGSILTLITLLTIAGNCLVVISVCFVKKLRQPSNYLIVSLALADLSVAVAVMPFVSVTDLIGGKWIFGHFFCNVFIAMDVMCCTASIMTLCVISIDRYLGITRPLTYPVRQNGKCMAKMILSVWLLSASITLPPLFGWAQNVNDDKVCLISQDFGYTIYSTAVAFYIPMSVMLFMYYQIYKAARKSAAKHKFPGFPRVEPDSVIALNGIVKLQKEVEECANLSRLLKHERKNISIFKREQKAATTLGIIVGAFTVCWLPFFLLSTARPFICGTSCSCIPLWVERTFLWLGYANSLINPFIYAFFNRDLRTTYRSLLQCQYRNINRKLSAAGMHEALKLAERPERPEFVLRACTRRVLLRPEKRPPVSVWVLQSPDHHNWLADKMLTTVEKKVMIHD
T2 sequence (P25021 whole entry): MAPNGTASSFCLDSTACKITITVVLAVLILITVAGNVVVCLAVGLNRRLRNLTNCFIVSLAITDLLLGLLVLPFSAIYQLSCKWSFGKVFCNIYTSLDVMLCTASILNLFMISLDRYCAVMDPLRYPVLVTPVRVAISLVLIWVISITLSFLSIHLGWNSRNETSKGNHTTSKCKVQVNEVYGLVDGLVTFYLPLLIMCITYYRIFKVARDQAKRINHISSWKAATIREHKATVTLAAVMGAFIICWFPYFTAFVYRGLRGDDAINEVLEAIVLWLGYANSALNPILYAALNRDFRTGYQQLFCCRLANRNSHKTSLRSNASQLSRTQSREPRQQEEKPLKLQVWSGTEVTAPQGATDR
T1 sequence (P28223 whole entry): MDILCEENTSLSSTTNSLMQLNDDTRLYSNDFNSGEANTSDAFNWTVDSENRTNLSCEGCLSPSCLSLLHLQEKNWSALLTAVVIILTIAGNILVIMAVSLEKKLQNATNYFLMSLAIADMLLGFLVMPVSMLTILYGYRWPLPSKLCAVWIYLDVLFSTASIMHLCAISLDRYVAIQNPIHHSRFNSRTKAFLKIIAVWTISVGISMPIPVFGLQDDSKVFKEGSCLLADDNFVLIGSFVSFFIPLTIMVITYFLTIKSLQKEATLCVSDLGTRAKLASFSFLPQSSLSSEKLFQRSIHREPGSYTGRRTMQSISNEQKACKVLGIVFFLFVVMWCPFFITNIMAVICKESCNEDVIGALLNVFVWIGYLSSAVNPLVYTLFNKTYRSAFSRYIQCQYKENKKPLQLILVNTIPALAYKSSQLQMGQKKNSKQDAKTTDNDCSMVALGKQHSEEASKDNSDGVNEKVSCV
T6 sequence (P14416 whole entry): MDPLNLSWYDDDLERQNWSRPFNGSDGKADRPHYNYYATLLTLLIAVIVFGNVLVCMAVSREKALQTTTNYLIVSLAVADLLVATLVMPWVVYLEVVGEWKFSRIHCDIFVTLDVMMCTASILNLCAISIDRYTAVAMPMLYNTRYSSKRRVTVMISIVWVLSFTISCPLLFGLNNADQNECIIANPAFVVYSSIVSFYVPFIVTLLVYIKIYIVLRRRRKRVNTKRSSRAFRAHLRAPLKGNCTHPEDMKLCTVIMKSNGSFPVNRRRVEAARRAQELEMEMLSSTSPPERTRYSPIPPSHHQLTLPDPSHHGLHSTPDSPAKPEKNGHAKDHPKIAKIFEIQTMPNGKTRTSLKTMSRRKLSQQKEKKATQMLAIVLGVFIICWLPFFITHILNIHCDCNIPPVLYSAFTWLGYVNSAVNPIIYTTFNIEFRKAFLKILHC

| Structure (SMILES) | Inhibition of ligand binding, Ser. 5-HT2A [1] [%] | inhibition at 1 µM [2, 7] [%] | Inhibition of ligand binding, Adren. alpha1D [3] [%] | Inhibition of ligand binding, Adren. alpha2A [4] [%] | Inhibition of ligand binding, Ser. 5-HT7 [5] [%] | inhibition at 1 µM [2, 8] [%] | inhibition at 1 µM ([2]; read-out: Histamine Binding H2, percent inhibition of specific binding) [%] | Inhibition of ligand binding, Dop. D2L [6] [%] |
| --- | --- | --- | --- | --- | --- | --- | --- | --- |
| CN1CCc2c(c3cc(Cl)ccc3n2CCC2CCCCC2)C1 [Compound 164, 8-chloro-5-(2-cyclohexylethyl)-2,3,4,5-tetrahydro-2-methyl-1H-pyrido[4,3-b]indole] | 91 | 84 | 32 | 95 | 92 | – | – | – |
| CN1CCc2c(c3cc(Cl)ccc3n2CCN2CCOCC2)C1 [Compound 186, 8-chloro-2,3,4,5-tetrahydro-2-methyl-5-(2-morpholinoethyl)-1H-pyrido[4,3-b]indole] | 84 | 25 | 41 | 51 | 57 | – | – | – |
| CN1CCc2c(c3c(Cl)cccc3n2CCC2CCCCC2)C1 [Compound 187, 9-chloro-5-(2-cyclohexylethyl)-2,3,4,5-tetrahydro-2-methyl-1H-pyrido[4,3-b]indole] | 84 | 69 | 15 | 90 | 77 | – | – | – |
| CN1CCc2c(c3ccc(Cl)cc3n2CCC2CCCCC2)C1 [Compound 188, 7-chloro-5-(2-cyclohexylethyl)-2,3,4,5-tetrahydro-2-methyl-1H-pyrido[4,3-b]indole] | 58 | 72 | 8 | 80 | 41 | – | – | – |
| Cc1ccc2c(c1)c1c(n2CCc2ccc(C)nc2)CC(=O)N(C)C1 [Compound 195, 1,2-dihydro-2,8-dimethyl-5-(2-(6-methylpyridin-3-yl)ethyl)-4H-pyrido[4,3-b]indol-3(5H)-one] | −4 | 22 | 15 | 4 | 2 | – | – | – |
| Cc1ccc2c(c1)c1c(n2CCc2ccccc2)CC(O)N(C)C1=O (centres unmarked) [Compound 215, 3,4-dihydro-3-hydroxy-2,8-dimethyl-5-phenethyl-2H-pyrido[4,3-b]indol-1(5H)-one] | −6 | – | −5 | 23 | 10 | 16 | – | – |
| Cc1ccc2c(c1)c1c(n2CCc2ccc(C)nc2)CCN(C)C1=O [Compound 216] | 12 | – | −7 | 15 | 18 | 11 | 11 | – |
| Cc1ccc2c(c1)c1c(n2CCN2CCCCC2)CCN(C)C1 [Compound 224, 2,3,4,5-tetrahydro-2,8-dimethyl-5-(2-(piperidin-1-yl)ethyl)-1H-pyrido[4,3-b]indole] | 32 | 79 | 22 | 57 | 61 | – | – | – |
| Cc1ccc2c(c1)c1c(n2CCc2ccccc2)CCN(C(=O)OCC(Cl)(Cl)Cl)C1 [Compound 227, 2,2,2-trichloroethyl 3,4-dihydro-8-methyl-5-phenethyl-1H-pyrido[4,3-b]indole-2(5H)-carboxylate] | −2 | 1 | 11 | 0 | −8 | – | – | – |
| Cc1ccc2c(c1)c1c(n2CCc2ccccc2)CCNC1 [Compound 228, 2,3,4,5-tetrahydro-8-methyl-5-phenethyl-1H-pyrido[4,3-b]indole] | 77 | 15 | 76 | 87 | 95 | – | – | – |
| CN1CCc2c(c3cc(F)ccc3n2CCc2ccc(F)cc2)C1 [Compound 253] | – | 73 | 81 | 93 | 87 | – | – | 96 |
| Cc1ccc2c(c1)c1c(n2CCc2ccc(C(=O)O)nc2)CCNC1 [Compound 262] | 6 | -8 | 3 | 8 | 6 | – | – | – |
| Cc1ccc2c(c1)c1c(n2CCC(=O)N2CCC(NC(=O)OC(C)(C)C)CC2)CCN(C)C1 [Compound 393, tert-butyl 1-(3-(1,2,3,4-tetrahydro-2,8-dimethylpyrido[4,3-b]indol-5-yl)propanoyl)piperidin-4-ylcarbamate] | 19 | 3 | 16 | 98 | 8 | – | – | – |
| Cc1ccc2c(c1)c1c(n2CCc2ccc(C)[n+]([O-])c2)CCN(C)C1 [Compound 394, 5-(2-(2,8-dimethyl-3,4-dihydro-1H-pyrido[4,3-b]indol-5(2H)-yl)ethyl)-2-methylpyridine 1-oxide] | 3 | -2 | 9 | 15 | 7 | – | – | – |
